Test system: mammal
Conditions: in vivo

## poly-oxygenated aluminum hydroxide [Ox66™]
  negative effects in toxicology studies: does not create any negative effects

Source: patent US10278988B2, “Reducing the proliferation of carcinoma cells by administration of a poly-oxygenated metal hydroxide” (priority 2016, dated 2019)
